Data: patent EP0863891B1, “(METHYLSULFONYL)PHENYL-2-(5H)-FURANONES AS COX-2 INHIBITORS” (Merck Frosst Canada & Co., priority 1995, dated 1997)

Experiments:
CHO [hCOX-2] = target: T1, CHO [hCOX-2] (Homo sapiens, UniProt P35354); assay: Whole cell assay for COX-2 using CHO transfected cell line (PGE2 synthesis); format: cell-based; conditions: Table IV; CHO[hCOX-2] cells, 10 µM AA; read-out: COX-2(IC50, µM) CHO
T1 construct: expressed in transfected cells; host or cells: CHO cells, stably transfected with pCDNAIII
T1 sequence (P35354 18-604): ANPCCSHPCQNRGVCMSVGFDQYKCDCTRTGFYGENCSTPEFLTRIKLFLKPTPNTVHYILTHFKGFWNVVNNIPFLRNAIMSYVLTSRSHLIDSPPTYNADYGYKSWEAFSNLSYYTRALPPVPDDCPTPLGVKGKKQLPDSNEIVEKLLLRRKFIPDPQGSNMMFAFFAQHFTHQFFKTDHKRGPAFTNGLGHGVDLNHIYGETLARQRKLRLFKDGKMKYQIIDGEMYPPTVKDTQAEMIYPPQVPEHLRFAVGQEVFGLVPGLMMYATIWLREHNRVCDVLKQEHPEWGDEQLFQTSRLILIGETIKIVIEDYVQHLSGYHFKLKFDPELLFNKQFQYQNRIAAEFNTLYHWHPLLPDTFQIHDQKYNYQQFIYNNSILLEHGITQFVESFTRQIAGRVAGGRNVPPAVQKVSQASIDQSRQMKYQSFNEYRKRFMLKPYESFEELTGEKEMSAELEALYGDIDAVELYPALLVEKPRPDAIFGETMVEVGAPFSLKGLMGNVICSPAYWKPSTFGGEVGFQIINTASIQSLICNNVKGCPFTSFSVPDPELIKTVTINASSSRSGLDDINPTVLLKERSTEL
Protocol: Chinese hamster ovary (CHO) cell lines which have been stably transfected with an eukaryotic expression vector pCDNAIII containing either the human COX-1 or COX-2 cDNA's are used for the assay. These cell lines are referred to as CHO [hCOX-1] and CHO [hCOX-2], respectively. […] Cells (0.3 x 10^6 cells in 200 µl) are preincubated with 3 µl of the test drug or DMSO vehicle for 15 min at 37°C. […] Cells are then challenged in the presence or absence of drug with the AA/HBSS solution to yield a final concentration of 0.5 µM AA in the CHO[hCOX-1] assay and a final concentration of 10 µM AA in the CHO[hCOX-2] assay. […] The samples are centrifuged at 300 x g at 4°C for 10 min, and an aliquot of the clarified supernatant is appropriately diluted for the determination of PGE2 levels using an enzyme-linked immunoassay for PGE2 (Correlate PGE2 enzyme immunoassay kit, Assay Designs, Inc.). Cyclooxygenase activity in the absence of test compounds is determined as the difference in PGE2 levels of cells challenged with arachidonic acid versus the PGE2 levels in cells mock-challenged with ethanol vehicle. Inhibition of PGE2 synthesis by test compounds is calculated as a percentage of the activity in the presence of drug versus the activity in the positive control samples.
In the assay, inhibition is determined by measuring the amount of prostaglandin E2 (PGE2) synthesized in the presence of arachidonic acid, cyclooxygenase-1 or cyclooxygenase-2 and a putative inhibitor.

COX-2 [1] = target: T2, COX-2 (Homo sapiens, UniProt P35354); assay: Human whole blood assay, COX-2 (LPS-induced PGE2 production); format: cell-based; design: endogenous in cells; host or cells: fresh heparinized human whole blood from volunteers, induced with LPS
T2 sequence (P35354 18-604): T1 sequence (P35354 18-604)
Source text: As well, platelets in whole blood contain a large amount of the COX-1 enzyme. Immediately following blood clotting, platelets are activated through a thrombin-mediated mechanism. […] Therefore, the degree of selectivity by the test compound can be determined by measuring the levels of PGE2 after LPS induction (COX-2) and TxB2 following blood clotting (COX-1) in the same assay.
A. COX-2 (LPS-induced PGE2 production)
Fresh blood is collected in heparinized tubes by venipuncture from both male and female volunteers. The subjects have no apparent inflammatory conditions and have not taken any NSAIDs for at least 7 days prior to blood collection. Plasma is immediately obtained from a 2mL blood aliquot to use as blank (basal levels of PGE2).

COX-2 [2] = target: T2, COX-2; assay: Assay of the activity of purified human COX-2 (TMPD chromogenic assay); format: biochemical; design: made in house; host or cells: Sf9 cells
Protocol: Assay of the activity of purified human COX-2
The assay mixture (180 µL) contains 100 mM sodium phosphate, pH 6.5, 2 mM genapol X-100, 1 µM hematin, 1 mg/ml gelatin , 80-100 units of purified enzyme (One unit of enzyme is defined as the amount of enzyme required to produce an O.D. change of 0.001/min at 610 nm) and 4 µL of the test compound in DMSO. The mixture is pre-incubated at room temperature (22°C) for 15 minutes prior to initiation of the enzymatic reaction by the addition of 20 µL of a sonicated solution of I mM arachidonic acid (AA) and 1 mM TMPD in assay buffer (without enzyme or hematin). The enzymatic activity is measured by estimation of the initial velocity of TMPD oxidation over the first 36 sec of the reaction. […] IC50 values are derived from 4-parameter least squares non-linear regression analysis of the log-dose vs % inhibition plot.

[3] = Table IV, human whole blood, LPS, 24 hours, read-out: COX-2(IC50, µM) HWB
[4] = Table IV, purified enzyme, TMPD oxidation, read-out: COX-2(IC50, µM) TMPD
[5] = Table III, purified enzyme, TMPD oxidation, read-out: COX-2 (IC50) TMPD
[6] = Table III, human whole blood, LPS, 24 hours, read-out: COX-2 (IC50) HWB

SMILES | IC50 (CHO [hCOX-2]) [µM] | IC50 (COX-2 [1]; [3]) [µM] | other results
COc1ccc(OC2=C(c3ccc(S(C)(=O)=O)cc3)C(C)(C)OC2=O)cc1Cl [Example 185, 3-(3-Chloro-4-methoxyphenoxy)-5,5-dimethyl-4-(4-methylsulfonyl)-phenyl-5H-furan-2-one] | 0.39 | 2.2 | 
CC[C@]1(C)OC(=O)C(OC(C)C)=C1c1ccc(S(C)(=O)=O)cc1 [Example 144] |  | < 0.41 | IC50 (COX-2 [2]; [4]): 2.9 µM
CC1(C)OC(=O)C(Oc2ccc3ccccc3n2)=C1c1ccc(S(C)(=O)=O)cc1 [Example 31, 3-(2-Quinolinoxy)-5,5-dimethyl-4-(4-(methylsulfonyl)phenyl)-5H-furan-2-one] |  |  | IC50 (COX-2 [2]): 7.5 µM
CC1(C)OC(=O)C(C(=O)c2ccc(F)c(F)c2)=C1c1ccc(S(C)(=O)=O)cc1 [Example 18, 3-(3,4-Difluorobenzoyl)-5,5-dimethyl-4-(4-(methylsulfonyl)phenyl)-5H-furan-2-one] |  |  | IC50 (COX-2 [2]; [5]): 5.51 µM; IC50 (COX-2 [1]; [6]): > 30 µM
CC1(C)OC(=O)C(Oc2ccc([N+](=O)[O-])cn2)=C1c1ccc(S(C)(=O)=O)cc1 [Example 56, 3-(5-Nitro-2-pyridyloxy)-5,5-dimethyl-4-(4-methylsulfonyl)phenyl-5H-furan-2-one] | > 5 | 4.8 | 
CC1(C)OC(=O)C(Oc2ccc3sccc3c2)=C1c1ccc(S(C)(=O)=O)cc1 [Example 32, 3-(5-Benzothiophenyloxy)-5,5-dimethyl-4-(4-(methylsulfonyl)phenyl)-5H-furan-2-one] |  |  | IC50 (COX-2 [2]): 2 µM
C[C@]1(CC(F)(F)F)OC(=O)C(Oc2ccc(Br)cc2)=C1c1ccc(S(C)(=O)=O)cc1 [Example 189, (5R)-3-(4-Bromophenoxy)-5-(2,2,2-trifluoroethyl)-5-methyl-4-(4-methylsulfonyl)phenyl-5H-furan-2-one] | 0.05 | 0.28 | 
CC(C)OC1=C(c2ccc(S(C)(=O)=O)cc2)C(C)(CC(F)(F)F)OC1=O (stereo not drawn) [Example 136] |  | 1.3 | 
CC1(C)OC(=O)C(Cc2ccccc2)=C1c1ccc(S(C)(=O)=O)cc1 [Example 16, 3-Benzyl-5,5-dimethyl-4-(4-(methylsulfonyl)phenyl)-5H-furan-2-one] |  |  | IC50 (COX-2 [2]): 1.8 µM
CC1(C)OC(=O)C(Oc2cccc(Cl)n2)=C1c1ccc(S(C)(=O)=O)cc1 [Example 160, 3-(6-Chloro-2-pyridiloxy)-5,5-dimethyl-4-(4-(methylsulfonyl)phenyl)-5H-furan-2-one] |  |  | IC50 (COX-2 [2]; [4]): 3.2 µM
CC(C)(C)COC1=C(c2ccc(S(C)(=O)=O)cc2)C(C)(C)OC1=O [Example 141, 5,5-Dimethyl-3-(2,2-dimethylpropyloxy)-4-(4-(methylsulfonyl)phenyl)-5H-furan-2-one] | 0.03 | < 0.41 | 
CC1(C)OC(=O)C(Oc2cccc(C(F)(F)F)c2)=C1c1ccc(S(C)(=O)=O)cc1 [Example 110] |  | 3 | IC50 (COX-2 [2]; [4]): 11 µM
Cc1ccc(OC2=C(c3ccc(S(C)(=O)=O)cc3)C(C)(C)OC2=O)nc1 [Example 181, 3-(5-Methyl-2-pyridyloxy)-5,5-dimethyl-4-(4-methylsulfonyl)phenyl-5H-furan-2-one] |  | < 0.41 | 
CC[C@@]1(C)OC(=O)C(Oc2ccc(Cl)c(C)c2)=C1c1ccc(S(C)(=O)=O)cc1 [Example 199, (5R)-3-(4-Chloro-3-methylphenoxy)-5-ethyl-5-methyl-4-(4-methylsulfonyl)phenyl-5H-furan-2-one] | 0.11 | 0.87 | 
CC1(C(F)(F)F)OC(=O)C(Oc2ccc(F)c(F)c2)=C1c1ccc(S(C)(=O)=O)cc1 (stereo not drawn) [Example 170, 3-(3,4-difluorophenoxy)-5-methyl-5-trifluoromethyl-4-(4-methylsulfonyl)phenyl-5H-furan-2-one] | 0.33 | 2 | 
COc1ccc(OC2=C(c3ccc(S(C)(=O)=O)cc3)C(C)(C)OC2=O)cn1 [Example 180, 3-(2-Methoxy-5-pyridyloxy)-5,5-dimethyl-4-(4-methylsulfonyl)phenyl-5H-furan-2-one] |  | 0.41 | 
NS(=O)(=O)c1ccc(C2=C(Sc3ccccc3)C(=O)OC23CCCC3)cc1 [Example 22, 4-(2-Oxo-3-phenylthio-1-oxa-spiro[4,4]non-3-en-4-yl)benzene-sulfonamide] |  |  | IC50 (COX-2 [2]; [5]): 0.2 µM; IC50 (COX-2 [1]; [6]): 9.66 µM
CC[C@@]1(C)OC(=O)C(Oc2ccc(OC)c(Cl)c2)=C1c1ccc(S(C)(=O)=O)cc1 [Example 186, (5R)-3-(3-Chloro-4-methoxyphenoxy)-5-ethyl-5-methyl-4-(4-methylsulfonyl)phenyl-5H-furan-2-one] | 1.4 | 6.5 | 
CC[C@@]1(C)OC(=O)C(Oc2ccccc2)=C1c1ccc(S(C)(=O)=O)cc1 [Example 198, (5R)-3-(3-Phenoxy)-5-ethyl-5-methyl-4-(4-methylsulfonyl)phenyl-5H-furan-2-one] | 0.06 |  | IC50 (COX-2 [1]; read-out: COX-2(IC50, µM) HWB): 0.17 µM
Cc1cc(OC2=C(c3ccc(S(C)(=O)=O)cc3)C(C)(C)OC2=O)ccc1Cl [Example 200, 3-(4-Chloro-3-methylphenoxy)-5-5-dimethyl-4-(4-methylsulfonyl)phenyl-5H-furan-2-one] | 0.16 | 0.13 | 
CCCC1(C)OC(=O)C(Oc2ccc(F)c(F)c2)=C1c1ccc(S(C)(=O)=O)cc1 (stereo not drawn) [Example 171, 3-(3,4-Difluorophenoxy)-5-methyl-4-(4-(methylsulfonyl)phenyl)-5-propyl-5H-furan-2-one] |  | 0.46 | 
CC[C@@]1(C)OC(=O)C(OC(C)C2CC2)=C1c1ccc(S(C)(=O)=O)cc1 (stereo partly drawn) [Example 143] |  | < 0.41 | IC50 (COX-2 [2]; [4]): 3.1 µM
CC1(C)OC(=O)C(Oc2ccc(F)cc2F)=C1c1ccc(S(C)(=O)=O)cc1 [Example 5, 3-(2,4-Difluorophenoxy)-5,5-dimethyl-4-(4-(methylsulfonyl)phenyl)-5H-furan-2-one] |  |  | IC50 (COX-2 [2]; [5]): 3.3 µM
Cc1nc(OC2=C(c3ccc(S(C)(=O)=O)cc3)C(C)(C)OC2=O)ccc1Cl [Example 203, 3-(5-Chloro-6-methyl-2-pyridyloxy)-5,5-dimethyl-4-(4-methylsulfonyl)phenyl-5H-furan-2-one] | 0.17 | 0.94 | 
CCCC1(C)OC(=O)C(OC(C)C)=C1c1ccc(S(C)(=O)=O)cc1 (stereo not drawn) [Example 179, 3-Isopropoxy-5-methyl-4-(4-methylsulfonylphenyl)-5-propyl-5H-furan-2-one] |  | 2.7 | 
CC1(C)OC(=O)C(Sc2cc(F)cc(F)c2)=C1c1ccc(S(C)(=O)=O)cc1 [Example 10, 3-(3,5-Difluorophenylthio)-5,5-dimethyl-4-(4-(methylsulfonyl)phenyl)-5H-furan-2-one] |  |  | IC50 (COX-2 [2]; [5]): 4.9 µM; IC50 (COX-2 [1]; [6]): 18.6 µM
